The values that follow come from patent publication US8278032B2, “Transporter protein in mammal and utilization of the same” (priority 2005, dated 2012).

In general, Km refers to the concentration of substrate that gives half-maximal velocity.

The target of one series is T1, mMATE1 (Mus musculus, UniProt Q8K0H1).
T1 construct: expressed in transfected cells; host or cells: HEK293
T1 sequence (Q8K0H1 with tags, fused parts or gaps): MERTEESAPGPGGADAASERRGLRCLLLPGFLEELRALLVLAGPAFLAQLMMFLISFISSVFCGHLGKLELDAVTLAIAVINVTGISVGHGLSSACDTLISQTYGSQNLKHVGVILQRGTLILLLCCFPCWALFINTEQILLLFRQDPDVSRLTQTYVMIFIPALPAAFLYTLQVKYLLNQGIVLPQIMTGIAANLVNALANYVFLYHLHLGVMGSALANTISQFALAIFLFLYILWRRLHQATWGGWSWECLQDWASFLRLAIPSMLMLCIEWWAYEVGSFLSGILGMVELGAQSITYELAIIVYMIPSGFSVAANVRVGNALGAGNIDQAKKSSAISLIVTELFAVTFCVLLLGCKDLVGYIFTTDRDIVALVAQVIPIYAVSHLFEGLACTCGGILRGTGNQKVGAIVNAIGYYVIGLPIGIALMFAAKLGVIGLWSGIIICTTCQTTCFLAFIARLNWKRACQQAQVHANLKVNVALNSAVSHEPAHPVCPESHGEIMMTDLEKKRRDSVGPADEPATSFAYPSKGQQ
Put plainly: Inhibition of RI-labeled TEA uptake in HEK293 cells expressing mMATE1.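 Note: transfected HEK293 cells held 5 min at 37 °C before tracer addition, uptake read as radioactivity retained on a 0.45-µm membrane filter, mean ± SD of three to nine experiments.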 The format is cell-based.

In series [1] the target is T2, hMATE1 (Homo sapiens, UniProt Q96FL8).
T2 sequence (Q96FL8 1-570): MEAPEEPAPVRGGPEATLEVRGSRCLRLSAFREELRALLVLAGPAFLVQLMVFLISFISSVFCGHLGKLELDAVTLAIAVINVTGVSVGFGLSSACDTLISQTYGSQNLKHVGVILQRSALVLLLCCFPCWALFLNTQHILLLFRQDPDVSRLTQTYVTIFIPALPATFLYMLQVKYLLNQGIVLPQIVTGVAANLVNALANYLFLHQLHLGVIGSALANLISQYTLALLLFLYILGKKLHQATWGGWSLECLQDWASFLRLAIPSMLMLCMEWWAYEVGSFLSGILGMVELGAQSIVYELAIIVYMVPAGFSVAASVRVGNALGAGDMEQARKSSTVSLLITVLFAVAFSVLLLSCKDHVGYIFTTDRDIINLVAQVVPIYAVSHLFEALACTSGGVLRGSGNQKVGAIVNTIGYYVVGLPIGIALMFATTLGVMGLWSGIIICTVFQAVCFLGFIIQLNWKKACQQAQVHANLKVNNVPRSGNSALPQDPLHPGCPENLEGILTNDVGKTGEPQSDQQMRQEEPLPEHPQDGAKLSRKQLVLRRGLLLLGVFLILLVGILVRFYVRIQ
Put plainly: Inhibition of RI-labeled TEA uptake in HEK293 cells expressing hMATE1. Conditions: for Inhibition of TEA uptake activity (in words, summary of Table 1): MATE1 expressing HEK293 cells, 50 μM TEA, pH 8.0; for TEA uptake activity percent taking the level with addition of no compound as 100% (% ± S.D.): 50 μM RI-labeled TEA, pH 8.0, HEK293 cells expressing hMATE1.

Series [2] has as its target T2, hMATE1.
For series [3], the target named is T2, hMATE1. Conditions: radioactive nicotine 2 μM, FIG. 10.
[4] abbreviates: compound 0.1 mM, 50 μM RI-labeled TEA, pH 8.0, HEK293 cells expressing mMATE1, read-out: TEA uptake activity percent taking the level with addition of no compound as 100% (% ± S.D.).
Where [5] appears, read: compound 5 mM, 50 μM RI-labeled TEA, pH 8.0, HEK293 cells expressing mMATE1.

Molecules are shown by their SMILES. Where two headings read alike, the source gives them in different places.

Turning to `CN/C(=N/CCSCc1nc[nH]c1C)NC#N` [Cimetidine], the remaining activity at 10 µM at mMATE1 (compound 0.01 mM, 50 μM RI-labeled TEA, pH 8.0, HEK293 cells expressing mMATE1, read-out: TEA uptake activity percent taking the level with addition of no compound as 100% (% ± S.D.)) was determined as 29.3 ± 5.2%. The remaining activity at 100 µM on mMATE1 (setting [4]) worked out at 3.1 ± 5.1%. The “Inhibition of TEA uptake activity (in words, summary of Table 1)” value (“Inhibition of TEA uptake activity” below) on hMATE1 [1] is “strongly inhibited”. The “TEA uptake activity percent taking the level with addition of no compound as 100% (% ± S.D.)” value on hMATE1 [1] (compound 0.01 mM) worked out at 44.7 ± 7.4%; at hMATE1 [1] (compound 0.1 mM) it was 9.7 ± 8.7%.

As for `C[C@]12C[C@H](O)[C@H]3[C@@H](CCC4=CC(=O)CC[C@@]43C)[C@@H]1CC[C@@H]2C(=O)CO` [Corticosterone], the remaining activity at 100 µM at mMATE1 (setting [4]) came to 50 ± 2.5%. Moreover, the “Inhibition of TEA uptake activity” value at hMATE1 [1] was “inhibited”. Besides, at hMATE1 [1] (compound 0.1 mM), the “TEA uptake activity percent taking the level with addition of no compound as 100% (% ± S.D.)” value is listed as 10.0 ± 6.7%.

For `N=C(N)N` [Guanidine], the remaining activity at 500 µM at mMATE1 (compound 0.5 mM, 50 μM RI-labeled TEA, pH 8.0, HEK293 cells expressing mMATE1, read-out: TEA uptake activity percent taking the level with addition of no compound as 100% (% ± S.D.)) is 96 ± 8.5%. For the same compound, on hMATE1 [1] (compound 0.5 mM), the “TEA uptake activity percent taking the level with addition of no compound as 100% (% ± S.D.)” value came to 93.4 ± 7.6%.

Consider `CC(O)C(=O)O` (centres unmarked) [Lactate], for which the “TEA uptake activity percent taking the level with addition of no compound as 100% (% ± S.D.)” value at mMATE1 (compound 10 mM, 50 μM RI-labeled TEA, pH 8.0, HEK293 cells expressing mMATE1) worked out at 93.9 ± 3.2%; on hMATE1 [1] (compound 10 mM), 103.8 ± 8.8%.

On to `C[n+]1ccc(-c2ccccc2)cc1` [MPP, 1-methyl-4-phenylpyridinium], for which the “TEA uptake activity percent taking the level with addition of no compound as 100% (% ± S.D.)” value on mMATE1 (compound 0.1 mM, 50 μM RI-labeled TEA, pH 8.0, HEK293 cells expressing mMATE1) is on record as 33.1 ± 9.5%; on mMATE1 (setting [5]), 0.0 ± 2.1%; at hMATE1 [1] (compound 0.1 mM), 67.4 ± 8.4%; on hMATE1 [1] (compound 5 mM), 0.0 ± 0.3%. Besides, the Vmax of transport on hMATE1 [2] (MPP as substrate, MATE1, species not stated) turned out to be 170 pmol/min/mg protein. Besides, the Km on hMATE1 [2] (read-out: Km value of transport, substrate transport, cells expressing wild type MATE1 (TEA: FIG. 9(c)), MPP: MATE1, species not stated) was determined as 16 µM. Moreover, the “Inhibition of TEA uptake activity” value on hMATE1 [1] is reported as “inhibited”.

As to `COc1ccc2[nH]cc(CCNC(C)=O)c2c1` [Melatonin], at mMATE1 (HEK293, pH 8, read-out: TEA uptake activity percent taking the level with addition of no compound as 100% (% ± S.D.)), the remaining activity at 100 µM was determined as 51.4 ± 0.8%. The “Inhibition of TEA uptake activity” value on hMATE1 [1] is reported as “inhibited”. At hMATE1 [1] (compound 0.1 mM), the “TEA uptake activity percent taking the level with addition of no compound as 100% (% ± S.D.)” value is listed as 85.0 ± 4.0%.

Turning to `CNC(=O)c1cccnc1` [NMN, N-methylnicotinamide], the remaining activity at 1000 µM at mMATE1 (compound 1 mM, 50 μM RI-labeled TEA, pH 8.0, HEK293 cells expressing mMATE1, read-out: TEA uptake activity percent taking the level with addition of no compound as 100% (% ± S.D.)) was determined as 115 ± 8.9%. Besides, the “TEA uptake activity percent taking the level with addition of no compound as 100% (% ± S.D.)” value on hMATE1 [1] (compound 1 mM) came out at 93.5 ± 1.9%.

With `CN1CCCC1c1cccnc1` (centres unmarked) [Nicotine], at mMATE1 (setting [4]), the remaining activity at 100 µM came to 91.9 ± 3.1%. Also, the remaining activity at 5000 µM on mMATE1 (compound 5 mM, 50 μM RI-labeled TEA, pH 8.0, HEK293 cells expressing mMATE1, read-out: TEA uptake activity percent taking the level with addition of no compound as 100% (% ± S.D.)) was determined as 36.7 ± 3.1%. Further, the “Nicotine transport by MATE1 (in words)” value at hMATE1 [3] is “functioning as a nicotine transporter”. Moreover, the “Inhibition of TEA uptake activity” value at hMATE1 [1] is given as “mildly inhibited”. For the same compound, the “TEA uptake activity percent taking the level with addition of no compound as 100% (% ± S.D.)” value at hMATE1 [1] (compound 0.1 mM) was found to be 63.7 ± 5.0%; on hMATE1 [1] (compound 5 mM), 5.8 ± 4.3%.

Consider `Nc1ccc(C(=O)NCC(=O)O)cc1` [PAH], for which the results for the “TEA uptake activity percent taking the level with addition of no compound as 100% (% ± S.D.)” value on mMATE1 (setting [5]) and at hMATE1 [1] (compound 5 mM) were 94.7 ± 9.1% and 110.3 ± 2.7%, respectively.
